Data: US9868738B2, “Diazine-fused amidines as BACE inhibitors, compositions, and their use” (Merck Sharp & Dohme Corp., priority 2014, dated 2018)
pKi: −log10 of the molar value.

Columns and labels:
[1] = biological target: purified human autoBACE-2 (Homo sapiens (Human), UniProt Q9Y5Z0); experiment: BACE-2 Assay (BACE-HTRF assay); format: biochemical; conditions: Ki calculated from IC50 using the Cheng-Prusoff equation; QSY7-EISEVNLDAEFC-Eu-amide substrate 200 nM, pH 5.0
Experimental: Inhibitor IC50s at purified human autoBACE-2 are determined in a time-resolved endpoint proteolysis assay that measures hydrolysis of the QSY7-EISEVNLDAEFC-Eu-amide FRET peptide substrate (BACE-HTRF assay). BACE-mediated hydrolysis of this peptide results in an increase in relative fluorescence (RFU) at 620 nm after excitation with 320 nm light. Inhibitor compounds, prepared at 3× the desired final concentration in 1×BACE assay buffer (20 mM sodium acetate pH 5.0, 10% glycerol, 0.1% Brij-35) supplemented with 7.5% DMSO are pre-incubated with an equal volume of autoBACE-2 enzyme diluted in 1×BACE assay buffer (final enzyme concentration 1 nM) in black 384-well NUNC plates for 30 minutes at 30° C. […] DMSO is present at […] final concentration in the assay. Following laser excitation of sample wells at 320 nm, the fluorescence signal at 620 nm is collected for 400 ms following a 50 μs delay on a RUBYstar HTRF plate reader (BMG Labtechnologies). Raw RFU data is normalized to maximum (1.0 nM BACE/DMSO) and minimum (no enzyme/DMSO) RFU values. IC50s are determined by nonlinear regression analysis (sigmoidal dose response, variable slope) of percent inhibition data with minimum and maximum values set to 0 and 100 percent respectively. Similar IC50s are obtained when using raw RFU data. The Ki values are calculated from the IC50 using the Cheng-Prusoff equation.

[2] = biological target: soluble human BACE1 catalytic domain (Homo sapiens (Human), UniProt P56817); experiment: BACE-1 Ki Assay (BACE-1 HTRF FRET Assay); format: biochemical; conditions: Ki calculated from IC50 using the Cheng-Prusoff equation; QSY7-APPswe-Eu substrate 200 nM, pH 5.0
Sequence of soluble human BACE1 catalytic domain (P56817 75-416): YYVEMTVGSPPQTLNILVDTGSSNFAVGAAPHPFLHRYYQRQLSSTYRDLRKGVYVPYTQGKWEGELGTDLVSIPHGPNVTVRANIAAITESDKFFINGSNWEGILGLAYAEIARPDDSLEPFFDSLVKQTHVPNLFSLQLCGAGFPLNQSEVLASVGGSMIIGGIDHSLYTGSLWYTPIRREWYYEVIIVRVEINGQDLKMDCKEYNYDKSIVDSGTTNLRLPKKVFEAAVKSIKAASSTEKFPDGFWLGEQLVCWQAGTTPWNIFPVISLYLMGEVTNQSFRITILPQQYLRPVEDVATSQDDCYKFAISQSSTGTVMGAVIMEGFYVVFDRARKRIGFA
Experimental: In another embodiment, the compounds of the invention comprise the example compounds shown in the table below, or a tautomer thereof, or a pharmaceutically acceptable salt of said compound or said tautomer. Examples 2 to 42 were prepared using the method similar to Ex. 1. Example 44 to 51 were synthesized using the method similar to Ex. 43. BACE-1 values reported in this table were measured using BACE-1 Ki Assay (BACE-1 HTRF FRET Assay).
• Reagents: Na^+-Acetate pH 5.0; 1% Brij-35; Glycerol; Dimethyl Sulfoxide (DMSO); Recombinant human soluble BACE1 catalytic domain (>95% pure); APP Swedish mutant peptide substrate (QSY7-APP^swe-Eu): QSY7-EISEVNLDAEFC-Europium-amide.
A homogeneous time-resolved FRET assay can be used to determine IC50 values for inhibitors of the soluble human BACE1 catalytic domain. This assay monitors the increase of 620 nm fluorescence that resulted from BACE1 cleavage of an APPswedish APP^swe mutant peptide FRET substrate (QSY7-EISEVNLDAEFC-Europium-amide). This substrate contains an N-terminal QSY7 moiety that serves as a quencher of the C-terminal Europium fluorophore (620 nm Em). In the absence of enzyme activity, 620 nm fluorescence is low in the assay and increased linearly over 3 hours in the presence of uninhibited BACE1 enzyme. Inhibition of BACE1 cleavage of the QSY7-APP^swe-Eu substrate by inhibitors is manifested as a suppression of 620 nm fluorescence.
Varying concentrations of inhibitors at 3× the final desired concentration in a volume of 10 ul are preincubated with purified human BACE1 catalytic domain (3 nM in 10 μl) for 30 minutes at 30° C. in reaction buffer containing 20 mM Na-Acetate pH 5.0, 10% glycerol, 0.1% Brij-35 and 7.5% DSMO. Reactions are initiated by addition of 10 μl of 600 nM QSY7-APP^swe-Eu substrate (200 nM final) to give a final reaction volume of 30 μl in a 384 well Nunc HTRF plate. The reactions are incubated at 30° C. for 1.5 hours. The 620 nm fluorescence is then read on a Rubystar HTRF plate reader (BMG Labtechnologies) using a 50 millisecond delay followed by a 400 millisecond acquisition time window. Inhibitor IC50 values are derived from non-linear regression analysis of concentration response curves. Ki values are then calculated from IC50 values using the Cheng-Prusoff equation using a previously determined […] of 8 μM for the QSY7-APP^swe-Eu substrate at BACE1.

Sequence of purified human autoBACE-2 (Q9Y5Z0 63-473 limits assumed): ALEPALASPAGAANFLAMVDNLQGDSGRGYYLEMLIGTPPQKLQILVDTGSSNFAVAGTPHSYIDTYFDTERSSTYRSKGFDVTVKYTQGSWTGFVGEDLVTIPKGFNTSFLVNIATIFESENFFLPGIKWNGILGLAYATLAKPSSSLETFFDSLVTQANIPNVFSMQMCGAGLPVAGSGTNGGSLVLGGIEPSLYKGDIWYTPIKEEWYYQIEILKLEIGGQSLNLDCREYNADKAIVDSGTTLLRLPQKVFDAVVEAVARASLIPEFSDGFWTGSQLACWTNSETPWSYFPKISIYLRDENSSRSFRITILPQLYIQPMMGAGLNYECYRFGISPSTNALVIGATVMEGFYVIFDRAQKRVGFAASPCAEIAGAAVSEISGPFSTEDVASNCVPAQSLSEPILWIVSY

pKi [1]	pKi [2]	SMILES
7.82	7.45	C[C@@]1(c2sc(-c3cccc(C#N)c3)cc2Cl)Cc2ncncc2C(=N)N1 [Example 13, 3-{4-chloro-5-[(7S)-5-imino-7-methyl-5,6,7,8-tetrahydropyrido[4,3-d]pyrimidin-7-yl]thiophen-2-yl}benzonitrile]
7.20	6.90	Cc1ncc2c(n1)C[C@@](C)(c1sc(-c3cncc(C#N)c3)cc1Cl)NC2=N [Example 25, 5-{4-chloro-5-[(7S)-5-imino-2,7-dimethyl-5,6,7,8-tetrahydropyrido[4,3-d]pyrimidin-7-yl]thiophen-2-yl}pyridine-3-carbonitrile]
6.67	7.07	C[C@@]1(c2cc(-c3cccc(-c4nnco4)c3)cs2)Cc2nc(C3CC3)ncc2C(=N)N1 [Example 34, (7S)-2-cyclopropyl-7-methyl-7-{4-[3-(1,3,4-oxadiazol-2-yl)phenyl]thiophen-2-yl}-7,8-dihydropyrido[4,3-d]pyrimidin-5(6H)-imine]
8.52	8.03	C[C@@]1(c2cc(NC(=O)c3ccc(F)cn3)ccc2F)Cc2ncncc2C(=N)N1 [Example 43, 5-fluoro-N-{4-fluoro-3-[(7S)-5-imino-7-methyl-5,6,7,8-tetrahydropyrido[4,3-d]pyrimidin-7-yl]phenyl}pyridine-2-carboxamide]
6.89	6.61	C[C@]1(c2sc(-c3cccc(C#N)c3)cc2Cl)NC(=N)c2cncnc2C1(F)F [Example 19, 3-{4-chloro-5-[(7S)-8,8-difluoro-5-imino-7-methyl-5,6,7,8-tetrahydropyrido[4,3-d]pyrimidin-7-yl]thiophen-2-yl}benzonitrile]
7.82	7.81	COc1ccc(C(=O)Nc2ccc(F)c([C@]3(C)Cc4nc(C)ncc4C(=N)N3)c2)nc1 [Example 47, N-{4-fluoro-3-[(7S)-5-imino-2,7-dimethyl-5,6,7,8-tetrahydropyrido[4,3-d]pyrimidin-7-yl]phenyl}-5-methoxypyridine-2-carboxamide]
7.50	7.12	C[C@@]1(c2sc(-c3cncc(C#N)c3)cc2Cl)Cc2ncncc2C(=N)N1 [Example 14, 5-{4-chloro-5-[(7S)-5-imino-7-methyl-5,6,7,8-tetrahydropyrido[4,3-d]pyrimidin-7-yl]thiophen-2-yl}pyridine-3-carbonitrile]
6.59	6.08	C[C@@]1(c2cc(-c3cccc(C#N)c3)ccc2F)Cc2ncncc2C(=N)N1 [Example 11, 4′-fluoro-3′-[(7S)-5-imino-7-methyl-5,6,7,8-tetrahydropyrido[4,3-d]pyrimidin-7-yl]biphenyl-3-carbonitrile]
7.54	7.97	Cc1ncc2c(n1)C[C@@](C)(c1sc(-c3cccc(-c4nnco4)c3)cc1Cl)NC2=N [Example 26, (7S)-7-{3-chloro-5-[3-(1,3,4-oxadiazol-2-yl)phenyl]thiophen-2-yl}-2,7-dimethyl-7,8-dihydropyrido[4,3-d]pyrimidin-5(6H)-imine]
7.40	7.09	C[C@]1(c2cc(-c3cccc(C#N)c3)cs2)NC(=N)c2cncnc2C1(F)F [Example 18, 3-{5-[(7S)-8,8-difluoro-5-imino-7-methyl-5,6,7,8-tetrahydropyrido[4,3-d]pyrimidin-7-yl]thiophen-3-yl}benzonitrile]
7.43	7.95	C[C@@]1(c2sc(-c3cccc(-c4nnco4)c3)cc2Cl)Cc2ncncc2C(=N)N1 [Example 15, (7S)-7-{3-chloro-5-[3-(1,3,4-oxadiazol-2-yl)phenyl]thiophen-2-yl}-7-methyl-7,8-dihydropyrido[4,3-d]pyrimidin-5(6H)-imine]
5.46	6.11	C[C@@]1(c2cc(-c3cncnc3)ccc2F)Cc2ncncc2C(=N)N1 [Example 7, (7S)-7-(2-fluoro-5-pyrimidin-5-ylphenyl)-7-methyl-7,8-dihydro-pyrido[4,3-d]pyrimidin-5(6H)-imine]
